pIC50: −log10 of the molar value.
Biological target: T1, recombinant human SAE enzyme (Homo sapiens, UniProt Q9UBT2)
T1 sequence (Q9UBT2 1-640): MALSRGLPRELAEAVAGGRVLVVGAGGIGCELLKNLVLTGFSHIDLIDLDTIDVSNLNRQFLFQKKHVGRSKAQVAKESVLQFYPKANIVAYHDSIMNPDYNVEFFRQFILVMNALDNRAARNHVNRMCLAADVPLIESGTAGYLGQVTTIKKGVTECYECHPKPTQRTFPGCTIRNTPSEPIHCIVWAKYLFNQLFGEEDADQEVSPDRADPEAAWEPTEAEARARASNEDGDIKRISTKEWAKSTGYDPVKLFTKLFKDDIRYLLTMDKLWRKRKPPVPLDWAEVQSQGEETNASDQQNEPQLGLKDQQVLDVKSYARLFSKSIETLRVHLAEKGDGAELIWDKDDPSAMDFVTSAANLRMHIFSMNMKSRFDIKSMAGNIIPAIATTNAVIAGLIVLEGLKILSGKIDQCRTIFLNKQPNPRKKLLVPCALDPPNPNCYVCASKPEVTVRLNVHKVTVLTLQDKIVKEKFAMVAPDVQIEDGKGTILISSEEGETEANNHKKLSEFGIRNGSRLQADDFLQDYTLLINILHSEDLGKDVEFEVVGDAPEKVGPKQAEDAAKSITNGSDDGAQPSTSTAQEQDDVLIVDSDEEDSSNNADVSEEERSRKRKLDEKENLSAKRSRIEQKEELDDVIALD
T1 sequence (Q9UBE0 1-346 partner): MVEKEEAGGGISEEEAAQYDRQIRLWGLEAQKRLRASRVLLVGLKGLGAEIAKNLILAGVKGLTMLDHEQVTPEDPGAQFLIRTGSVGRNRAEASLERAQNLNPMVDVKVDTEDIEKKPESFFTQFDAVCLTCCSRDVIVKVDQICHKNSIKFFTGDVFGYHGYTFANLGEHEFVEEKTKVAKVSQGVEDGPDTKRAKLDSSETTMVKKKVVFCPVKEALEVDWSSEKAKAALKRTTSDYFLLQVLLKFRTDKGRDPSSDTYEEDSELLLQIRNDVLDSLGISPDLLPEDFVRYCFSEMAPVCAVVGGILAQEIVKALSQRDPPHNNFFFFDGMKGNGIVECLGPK
Experiment: SAE HTRF Enzyme Assay
Assay type: biochemical
Settings: for pIC50: class symbols A-C; for inhibition at 0.111 µM: compound concentration 0.111 μM, read-out: Percent Inhibition
Outline: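 Recombinant human SAE (0.11 nM) transferred Sumo-Flag (0.125 μM) to Ubc9-GST (0.01 μM) with 0.5 μM ATP in HEPES pH 7.5, MgCl2, GSH, BSA; 105 min at 24° C. EDTA stop, Eu-cryptate anti-Flag and XL-APC anti-GST added, 2 h, then HTRF read. Values given as % inhibition at one concentration or IC50.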

SMILES	pIC50	inhibition at 0.111 µM [%]
NS(=O)(=O)OC[C@H]1C[C@@H](Nc2ncncc2C(=O)c2ccn(CC(=O)c3ccccc3)n2)[C@H](O)[C@@H]1O [Compound I-125, {(1R,2R,3S,4R)-2,3-Dihydroxy-4-[(5-{([1-(2-oxo-2-phenylethyl)-1H-pyrazol-3-yl]carbonyl}pyrimidin-4-yl)amino]cyclopentyl}methyl sulfamate]	> 8.00	99
NS(=O)(=O)OC[C@H]1C[C@@H](Nc2ncncc2C(=O)c2ccn(Cc3ccc(Cl)c(SC(F)(F)F)c3)n2)[C@H](O)[C@@H]1O [Compound I-126, [(1R,2R,3S,4R)-4-({5-[(1-{4-chloro-3-[(trifluoromethyl)sulfanyl]benzyl}-1H-pyrazol-3-yl)carbonyl]pyrimidin-4-yl}amino)-2,3-dihydroxycyclopentyl]methyl sultamate]	> 8.00	> 99
NS(=O)(=O)OC[C@H]1C[C@@H](Nc2ncncc2C(=O)c2ccn(Cc3ccc(Cl)c(Br)c3)n2)[C@@H](F)[C@@H]1O [Compound I-127, {(1R,2R,3R,4R)-4-[(5-{[1-(3-bromo-4-chlorobenzyl)-1H-pyrazol-3-yl]carbonyl}pyrimidin-4-yl)amino]-3-fluoro-2-hydroxycyclopentyl}methyl sulfamate]	> 8.00	99
Cc1cccc(Cn2ccc(C(=O)c3cncnc3N[C@@H]3C[C@H](COS(N)(=O)=O)[C@@H](O)C3)n2)c1 [Compound I-128, {(1R,2S,4R)-2-hydroxy-4-[(5-{[1-(3-methylbenzyl)-1H-pyrazol-3-yl]carbonyl}pyrimidin-4-yl)amino]cyclopentyl}methyl sulfamate]	> 8.00	98
NS(=O)(=O)OC[C@H]1C[C@@H](Nc2ncncc2C(=O)c2ccn(Cc3cccc(C(F)(F)F)c3)c2)C[C@@H]1O [Compound I-129, [(1R,2S,4R)-2-hydroxy-4-{[5-({1-[3-(trifluoromethyl)benzyl]-1H-pyrrol-3-yl}carbonyl)pyrimidin-4-yl]amino}cyclopentyl]methyl sulfamate]	> 8.00	99
NS(=O)(=O)OC[C@H]1C[C@@H](Nc2ncncc2C(=O)c2ccn(Cc3ccc(C(F)(F)F)o3)n2)[C@H](O)[C@@H]1O [Compound I-130, [(1R,2R,3S,4R)-2,3-dihydroxy-4-({5-[(1-{[5-(trifluoromethyl)-2-furyl]methyl}-1H-pyrazol-3-yl)carbonyl]pyrimidin-4-yl}amino)cyclopentyl]methyl sulfamate]	> 8.00	98
NS(=O)(=O)OC[C@H]1C[C@@H](Nc2ncncc2C(=O)c2ccn(Cc3cccc(OC(F)(F)F)c3)c2)[C@@H](F)[C@@H]1O [Compound I-131, [(1R,2R,3R,4R)-3-Fluoro-2-hydroxy-4-{[5-({1-[3-(trifluoromethoxy)benzyl]-1H-pyrrol-3-yl}carbonyl)pyrimidin-4-yl]amino}cyclopentyl]methyl sulfamate]	> 8.00	96
NS(=O)(=O)OC[C@H]1C[C@@H](Nc2ccncc2C(=O)c2ccn(Cc3cccc(OC(F)(F)F)c3)c2)[C@@H](F)[C@@H]1O [Compound I-132, [(1R,2R,3R,4R)-3-Fluoro-2-hydroxy-4-{[3-({1-[3-(trifluoromethoxy)benzyl]-1H-pyrrol-3-yl}carbonyl)pyridin-4-yl]amino}cyclopentyl]methyl sulfamate]	7.00 to 8.00	78
NS(=O)(=O)OC[C@H]1C[C@@H](Nc2ncncc2C(=O)c2ccn(Cc3ccc(F)c(OC(F)(F)F)c3)n2)[C@H](O)[C@@H]1O [Compound I-134, [(1R,2R,3S,4R)-4-{[5-({1-[4-fluoro-3-(trifluoromethoxy)benzyl]-1H-pyrazol-3-yl}carbonyl)pyrimidin-4-yl]amino}-2,3-dihydroxycyclopentyl]methyl sulfamate]	> 8.00	98
NS(=O)(=O)OC[C@H]1C[C@@H](Nc2ncncc2C(=O)c2ccn(Cc3ccccc3)n2)[C@@H](O)[C@@H]1O [Compound I-135, [(1R,2R,3R,4R)-4-({5-[(1-Benzyl-1H-pyrazol-3-yl)carbonyl]pyrimidin-4-yl}amino)-2,3-dihydroxycyclopentyl]methyl sulfamate]	7.00 to 8.00	81
NS(=O)(=O)NC[C@H]1C[C@@H](Nc2ncncc2C(=O)c2ccn(Cc3cccc(Cl)c3)n2)[C@H](O)[C@@H]1O [Compound I-136, N-({(1R,2R,3S,4R)-4-[(5-{[1-(3-Chlorobenzyl)-1H-pyrazol-3-yl]carbonyl}pyrimidin-4-yl)amino]-2,3-dihydroxycyclopentyl}methyl)sulfuric diamide]	7.00 to 8.00	88
C[Si](C)(C)c1cccc(Cn2ccc(C(=O)c3cncnc3N[C@@H]3C[C@H](COS(N)(=O)=O)[C@@H](O)C3)n2)c1 [Compound I-137, [(1R,2S,4R)-2-hydroxy-4-{[5-({1-[3-(trimethylsilyl)benzyl]-1H-pyrazol-3-yl}carbonyl)pyrimidin-4-yl]amino}cyclopentyl]methyl sulfamate]	7.00 to 8.00	78
Cc1cc(C(=O)c2cncnc2N[C@@H]2C[C@H](COS(N)(=O)=O)[C@@H](O)[C@H]2O)nn1Cc1ccc(C(F)(F)F)o1 [Compound I-138, [(1R,2R,3S,4R)-2,3-Dihydroxy-4-({5-[(5-methyl-1-{[5-(trifluoromethyl)-2-furyl]methyl}-1H-pyrazol-3-yl)carbonyl]pyrimidin-4-yl}amino)cyclopentyl]methyl sulfamate]	> 8.00	99
NS(=O)(=O)OC[C@H]1C[C@@H](Nc2ncncc2C(=O)c2nn(Cc3ccccc3)cc2Cl)[C@H](O)[C@@H]1O [Compound I-139, [(1R,2R,3S,4R)-4-({5-[(1-benzyl-4-chloro-1H-pyrazol-3-yl)carbonyl]pyrimidin-4-yl}amino)-2,3-dihydroxycyclopentyl]methyl sulfamate]	> 8.00	86
NS(=O)(=O)OC[C@H]1C[C@@H](Nc2ncncc2C(=O)c2ccn(Cc3cccc(C(F)(F)F)c3)n2)C[C@@H]1O [Compound I-140, [(1R,2S,4R)-2-hydroxy-4-{[5-({1-[3-(trifluoromethyl)benzyl]-1H-pyrazol-3-yl}carbonyl)pyrimidin-4-yl]amino}cyclopentyl]methyl sulfamate]	> 8.00	98
NS(=O)(=O)OC[C@H]1C[C@@H](Nc2ncncc2C(=O)c2ccn(Cc3ccc(F)c(Cl)c3)c2)[C@@H](F)[C@@H]1O [Compound I-141, {(1R,2R,3R,4R)-4-[(5-{[1-(3-chloro-4-fluorobenzyl)-1H-pyrrol-3-yl]carbonyl}pyrimidin-4-yl)amino]-3-fluoro-2-hydroxycyclopentyl}methy1 sulfamate]	> 8.00	99
NS(=O)(=O)OC[C@H]1C[C@@H](Nc2ncncc2C(=O)c2ccn(Cc3ccccc3)n2)[C@H](O)[C@@H]1O [Compound I-142, [(1R,2R,3S,4R)-4-({5-[(1-Benzyl-1H-pyrazol-3-yl)carbonyl]pyrimidin-4-yl}amino)-2,3-dihydroxycyclopentyl]methyl sulfamate]	> 8.00	99

Reference: US9695154B2, “Heteroaryl inhibitors of sumo activating enzyme” (MILLENNIUM PHARMACEUTICALS, INC., priority 2013, dated 2017)
